# Measurements published in ChEMBL document CHEMBL3525924, “Cytochrome P450 3A-mediated microsomal biotransformation of 1α,25-dihydroxyvitamin D3 in mouse and human liver: drug-related induction and inhibition of catabolism” (Drug Metab Dispos, 2012).
# Key:
# Assay type in all cases: ADME
# Details in all cases: 0.5 h
# [1] = Drug metabolism in prednisone treated CD1 mouse liver microsomes treated with 20 uM of 1alpha,25(OH)2D3 assessed as metabolite formation after 30 mins by LC/MS analysis in presence of NADPH
# Liver microsome [2] = assay: Drug level in human liver microsomes assessed as retention time treated with 20 uM of 1alpha,25(OH)2D3 after 30 mins by LC/MS analysis in presence of NADPH
# [3] = Drug metabolism in prednisone treated CD1 mouse liver microsomes assessed as metabolite formation at 20 uM after 30 mins by LC/MS analysis in presence of NADPH and CYP2E inhibitor di-ethyldithiocarbamate
# [4] = Drug metabolism in dexamethasone treated CD1 mouse liver microsomes assessed as metabolite formation at 20 uM after 30 mins by LC/MS analysis in presence of NADPH and CYP2E inhibitor di-ethyldithiocarbamate
# [5] = Drug metabolism in CD1 mouse liver microsomes assessed as metabolite formation at 20 uM after 30 mins by LC/MS analysis in presence of NADPH and CYP2E inhibitor di-ethyldithiocarbamate
# [6] = Drug metabolism in prednisone treated CD1 mouse liver microsomes assessed as metabolite formation at 20 uM after 30 mins by LC/MS analysis in presence of NADPH and CYP2A inhibitor 8-methoxypsoralen
# [7] = Drug metabolism in dexamethasone treated CD1 mouse liver microsomes assessed as metabolite formation at 20 uM after 30 mins by LC/MS analysis in presence of NADPH and CYP2A inhibitor 8-methoxypsoralen
# [8] = Drug metabolism in CD1 mouse liver microsomes assessed as metabolite formation at 20 uM after 30 mins by LC/MS analysis in presence of NADPH and CYP2A inhibitor 8-methoxypsoralen
# [9] = Drug metabolism in prednisone treated CD1 mouse liver microsomes assessed as metabolite formation at 20 uM after 30 mins by LC/MS analysis in presence of NADPH and CYP2B inhibitor orphenadrine
# [10] = Drug metabolism in dexamethasone treated CD1 mouse liver microsomes assessed as metabolite formation at 20 uM after 30 mins by LC/MS analysis in presence of NADPH and CYP2B inhibitor orphenadrine
# [11] = Drug metabolism in CD1 mouse liver microsomes assessed as metabolite formation at 20 uM after 30 mins by LC/MS analysis in presence of NADPH and CYP2B inhibitor orphenadrine
# Liver microsome [12] = assay: Drug metabolism in human liver microsomes assessed as IC50 for ritonavir-mediated inhibition of metabolite formation at 20 uM after 30 mins by LC/MS analysis
# Liver microsome [13] = assay: Drug metabolism in human liver microsomes assessed as IC50 for ketoconazole-mediated inhibition of metabolite formation at 20 uM after 30 mins by LC/MS analysis
# Liver microsome [14] = assay: Drug metabolism in human liver microsomes assessed as IC50 for clarithromycin-mediated inhibition of metabolite formation at 20 uM after 30 mins by LC/MS analysis
# Liver microsome [15] = assay: Drug metabolism in human liver microsomes assessed as IC50 for tamoxifen-mediated inhibition of metabolite formation at 20 uM after 30 mins by LC/MS analysis
# Liver microsome [16] = assay: Drug metabolism in human liver microsomes assessed as IC50 for docetaxel-mediated inhibition of metabolite formation at 20 uM after 30 mins by LC/MS analysis
# [17] = Drug level in dexamethasone treated CD1 mouse liver microsomes treated with 20 uM of 1alpha,25(OH)2D3 after 30 mins by LC/MS analysis in presence of NADPH relative to vehicle treated mouse
# [18] = Drug metabolism in prednisone treated CD1 mouse liver microsomes assessed as metabolite formation at 20 uM after 30 mins by LC/MS analysis in presence of NADPH and CYP1A2 inhibitor furafyline
# [19] = Drug metabolism in dexamethasone treated CD1 mouse liver microsomes assessed as metabolite formation at 20 uM after 30 mins by LC/MS analysis in presence of NADPH and CYP1A2 inhibitor furafyline
# [20] = Drug metabolism in CD1 mouse liver microsomes assessed as metabolite formation at 20 uM after 30 mins by LC/MS analysis in presence of NADPH and CYP1A2 inhibitor furafyline
# [21] = Drug metabolism in prednisone treated CD1 mouse liver microsomes assessed as metabolite formation at 20 uM after 30 mins by LC/MS analysis in presence of NADPH and CYP1A1 inhibitor alpha-naphthoflavone
# [22] = Drug metabolism in dexamethasone treated CD1 mouse liver microsomes assessed as metabolite formation at 20 uM after 30 mins by LC/MS analysis in presence of NADPH and CYP1A1 inhibitor alpha-naphthoflavone
# [23] = Drug metabolism in CD1 mouse liver microsomes assessed as metabolite formation at 20 uM after 30 mins by LC/MS analysis in presence of NADPH and CYP1A1 inhibitor alpha-naphthoflavone
# [24] = Drug metabolism in prednisone treated CD1 mouse liver microsomes assessed as metabolite formation at 20 uM after 30 mins by LC/MS analysis in presence of NADPH and CYP2C inhibitor sulfaphenazole
# [25] = Drug metabolism in dexamethasone treated CD1 mouse liver microsomes assessed as metabolite formation at 20 uM after 30 mins by LC/MS analysis in presence of NADPH and CYP2C inhibitor sulfaphenazole
# [26] = Drug metabolism in CD1 mouse liver microsomes assessed as metabolite formation at 20 uM after 30 mins by LC/MS analysis in presence of NADPH and CYP2C inhibitor sulfaphenazole
# [27] = Drug metabolism in prednisone treated CD1 mouse liver microsomes assessed as metabolite formation at 20 uM after 30 mins by LC/MS analysis in presence of NADPH and CYP2D inhibitor quinine
# [28] = Drug metabolism in dexamethasone treated CD1 mouse liver microsomes assessed as metabolite formation at 20 uM after 30 mins by LC/MS analysis in presence of NADPH and CYP2D inhibitor quinine
# [29] = Drug metabolism in CD1 mouse liver microsomes assessed as metabolite formation at 20 uM after 30 mins by LC/MS analysis in presence of NADPH and CYP2D inhibitor quinine
structure (smiles),measurement,setting,value
C=C1/C(=C\C=C2/CCC[C@]3(C)[C@@H]([C@H](C)CC[C@@H](O)C(C)(C)O)CC[C@@H]23)C[C@@H](O)C[C@@H]1O,Drug metabolism,[1],metabolite_detected
same,Retention_time,Liver microsome [2],8.8 min
same,Drug metabolism,[3],metabolite_detected
same,Drug metabolism,[4],metabolite_detected
same,Drug metabolism,[5],metabolite_detected
same,Drug metabolism,[6],metabolite_detected
same,Drug metabolism,[7],metabolite_detected
same,Drug metabolism,[8],metabolite_detected
same,Drug metabolism,[9],metabolite_detected
same,Drug metabolism,[10],metabolite_detected
same,Drug metabolism,[11],metabolite_detected
same,IC50,Liver microsome [12],0.028 µM
same,IC50,Liver microsome [13],0.042 µM
same,IC50,Liver microsome [14],> 30 µM
same,IC50,Liver microsome [15],> 40 µM
same,IC50,Liver microsome [16],0.077 µM
same,fold change (FC),[17],17
same,Drug metabolism,[18],metabolite_detected
same,Drug metabolism,[19],metabolite_detected
same,Drug metabolism,[20],metabolite_detected
same,Drug metabolism,[21],metabolite_detected
same,Drug metabolism,[22],metabolite_detected
same,Drug metabolism,[23],metabolite_detected
same,Drug metabolism,[24],metabolite_detected
same,Drug metabolism,[25],metabolite_detected
same,Drug metabolism,[26],metabolite_detected
same,Drug metabolism,[27],metabolite_detected
same,Drug metabolism,[28],metabolite_detected
same,Drug metabolism,[29],metabolite_detected
C=C1/C(=C\C=C2/CCC[C@]3(C)[C@@H]([C@H](C)C[C@H](O)CC(C)(C)O)CC[C@@H]23)C[C@@H](O)C[C@@H]1O,Drug metabolism,[1],metabolite_detected
same,Retention_time,Liver microsome [2],8.5 min
same,Drug metabolism,[3],metabolite_detected
same,Drug metabolism,[4],metabolite_detected
same,Drug metabolism,[5],metabolite_detected
same,Drug metabolism,[6],metabolite_detected
same,Drug metabolism,[7],metabolite_detected
same,Drug metabolism,[8],metabolite_detected
same,Drug metabolism,[9],metabolite_detected
same,Drug metabolism,[10],metabolite_detected
same,Drug metabolism,[11],metabolite_detected
same,IC50,Liver microsome [12],0.013 µM
same,IC50,Liver microsome [13],0.04 µM
same,IC50,Liver microsome [14],> 30 µM
same,IC50,Liver microsome [15],> 40 µM
same,IC50,Liver microsome [16],0.038 µM
same,fold change (FC),[17],43
same,Drug metabolism,[18],metabolite_detected
same,Drug metabolism,[19],metabolite_detected
same,Drug metabolism,[20],metabolite_detected
same,Drug metabolism,[21],metabolite_detected
same,Drug metabolism,[22],metabolite_detected
same,Drug metabolism,[23],metabolite_detected
same,Drug metabolism,[24],metabolite_detected
same,Drug metabolism,[25],metabolite_detected
same,Drug metabolism,[26],metabolite_detected
same,Drug metabolism,[27],metabolite_detected
same,Drug metabolism,[28],metabolite_detected
same,Drug metabolism,[29],metabolite_detected
C=C1/C(=C\C=C2/CCC[C@]3(C)[C@@H]([C@H](C)CC[C@H](O)C(C)(C)O)CC[C@@H]23)C[C@@H](O)C[C@@H]1O,Drug metabolism,[1],metabolite_detected
same,Retention_time,Liver microsome [2],9 min
same,Drug metabolism,[3],metabolite_detected
same,Drug metabolism,[4],metabolite_detected
same,Drug metabolism,[5],metabolite_detected
same,Drug metabolism,[6],metabolite_detected
same,Drug metabolism,[7],metabolite_detected
same,Drug metabolism,[8],metabolite_detected
same,Drug metabolism,[9],metabolite_detected
same,Drug metabolism,[10],metabolite_detected
same,Drug metabolism,[11],metabolite_detected
same,IC50,Liver microsome [12],0.008 µM
same,IC50,Liver microsome [13],0.565 µM
same,IC50,Liver microsome [14],> 30 µM
same,IC50,Liver microsome [15],> 40 µM
same,IC50,Liver microsome [16],0.012 µM
same,Drug metabolism,[17],metabolite_detected
same,Drug metabolism,[18],metabolite_detected
same,Drug metabolism,[19],metabolite_detected
same,Drug metabolism,[20],metabolite_detected
same,Drug metabolism,[21],metabolite_detected
same,Drug metabolism,[22],metabolite_detected
same,Drug metabolism,[23],metabolite_detected
same,Drug metabolism,[24],metabolite_detected
same,Drug metabolism,[25],metabolite_detected
same,Drug metabolism,[26],metabolite_detected
same,Drug metabolism,[27],metabolite_detected
same,Drug metabolism,[28],metabolite_detected
same,Drug metabolism,[29],metabolite_detected
